In publication PMC3206013, “Unique Interplay between Sugar and Lipid in Determining the Antigenic Potency of Bacterial Antigens for NKT Cells” (PLoS Biology, 2011):
Substitutions are numbered along the chain they refer to.

How the values were obtained:
Test in all cases: SPR loading efficiency, L363 Fab on immobilised loaded CD1d
Format in all cases: binding
[1] = target: T1, mCD1d (birA-tag mCD1d/β2m) (Mus musculus, UniProt P11609, M180A); conditions: 16 h with 1 µg/ml α-GalCer; WT set at 100%; printed Met162Ala and M162A, Met62Ala
T1 construct: gene Cd1d1; soluble glycosylated CD1d/β2m heterodimer, birA tag, biotinylated; with Beta-2-microglobulin
T1 sequence (P11609 19-297 M180A): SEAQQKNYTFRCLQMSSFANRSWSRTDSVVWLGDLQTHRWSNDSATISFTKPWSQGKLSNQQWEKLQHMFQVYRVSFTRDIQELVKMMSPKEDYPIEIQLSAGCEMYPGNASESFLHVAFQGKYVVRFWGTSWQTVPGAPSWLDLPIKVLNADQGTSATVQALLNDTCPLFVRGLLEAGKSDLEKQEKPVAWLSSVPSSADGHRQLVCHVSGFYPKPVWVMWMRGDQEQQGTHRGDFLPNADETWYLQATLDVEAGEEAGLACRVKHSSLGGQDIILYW
T1 sequence (P01887 21-119 partner): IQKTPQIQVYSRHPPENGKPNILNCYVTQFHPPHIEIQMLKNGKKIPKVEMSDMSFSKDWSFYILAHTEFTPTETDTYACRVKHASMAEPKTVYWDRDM

[2] = target: T2, mCD1d (birA-tag mCD1d/β2m) (Mus musculus, UniProt P11609, L168V); conditions: 16 h with 1 µg/ml α-GalCer; WT set at 100%
T2 construct: gene Cd1d1; soluble glycosylated CD1d/β2m heterodimer, birA tag, biotinylated; with Beta-2-microglobulin
T2 sequence (P11609 19-297 L168V): T1 sequence (P11609 19-297 M180A) with L150V, A162M
T2 sequence (P01887 21-119 partner): T1 sequence (P01887 21-119 partner)

[3] = target: T3, mCD1d (birA-tag mCD1d/β2m) (Mus musculus, UniProt P11609, L102F); conditions: 16 h with 1 µg/ml α-GalCer; WT set at 100%; lower than WT but never below 65%
T3 construct: gene Cd1d1; soluble glycosylated CD1d/β2m heterodimer, birA tag, biotinylated; with Beta-2-microglobulin
T3 sequence (P11609 19-297 L102F): T1 sequence (P11609 19-297 M180A) with L84F, A162M
T3 sequence (P01887 21-119 partner): T1 sequence (P01887 21-119 partner)

[4] = target: T4, mCD1d (birA-tag mCD1d/β2m) (Mus musculus, UniProt P11609, V167L); conditions: 16 h with 1 µg/ml α-GalCer; WT set at 100%
T4 construct: gene Cd1d1; soluble glycosylated CD1d/β2m heterodimer, birA tag, biotinylated; with Beta-2-microglobulin
T4 sequence (P11609 19-297 V167L): T1 sequence (P11609 19-297 M180A) with V149L, A162M
T4 sequence (P01887 21-119 partner): T1 sequence (P01887 21-119 partner)

[5] = target: T5, mCD1d (birA-tag mCD1d/β2m) (Mus musculus, UniProt P11609); conditions: 16 h with 1 µg/ml α-GalCer; reference set at 100%
T5 construct: gene Cd1d1; soluble glycosylated CD1d/β2m heterodimer, birA tag, biotinylated; with Beta-2-microglobulin
T5 sequence (P11609 19-297): T1 sequence (P11609 19-297 M180A) with A162M
T5 sequence (P01887 21-119 partner): T1 sequence (P01887 21-119 partner)

Compound: CCCCCCCCCCCCCCCCCCCCCCCCCC(=O)N[C@@H](CO[C@H]1O[C@H](CO)[C@H](O)[C@H](O)[C@H]1O)[C@H](O)[C@H](O)CCCCCCCCCCCCCC [α-GalCer]
- antigen loading efficiency, % of WT [1]: Leu84Phe and Met62Ala mutants showed lower levels of antigen loading compared to wild type
- antigen loading efficiency, % of WT [2]: we measured the loading efficiency of α-GalCer on each mutant by surface plasmon resonance
- antigen loading efficiency, % of WT [3]: Leu84Phe and Met62Ala mutants showed lower levels of antigen loading compared to wild type
- antigen loading efficiency, % of WT [4]: we measured the loading efficiency of α-GalCer on each mutant by surface plasmon resonance
- antigen loading efficiency, % of WT [5]: Relative antigen loading efficiencies by the mCD1d mutants as determined by surface plasmon resonance
